Data: ChEMBL document CHEMBL6092149, “Discovery of 1(2H)-phthalazinone and 1(2H)-isoquinolinone derivatives as potent hematopoietic progenitor kinase 1 (HPK1) inhibitors” (Eur J Med Chem, 2024)
pEC50, pIC50: −log10 of the molar value. The source made the active and inactive calls. The calls are words filed in the database; no cut-off is given here.

Assays:
[1] = target: T1, Mitogen-activated protein kinase kinase kinase kinase 1 (Homo sapiens, UniProt Q92918); assay: Inhibition of N-terminal DYKDDDDK recombinant human HPK1 (1 to 346 residues) expressed in Sf21 insect cells preincubated for 10 min followed by fluorescein PKC and ATP addition and measured after 90 min by Envision2104 Multilabel Reader analysis
Target sequence in this assay (Q92918 whole entry, the tested form may be a part): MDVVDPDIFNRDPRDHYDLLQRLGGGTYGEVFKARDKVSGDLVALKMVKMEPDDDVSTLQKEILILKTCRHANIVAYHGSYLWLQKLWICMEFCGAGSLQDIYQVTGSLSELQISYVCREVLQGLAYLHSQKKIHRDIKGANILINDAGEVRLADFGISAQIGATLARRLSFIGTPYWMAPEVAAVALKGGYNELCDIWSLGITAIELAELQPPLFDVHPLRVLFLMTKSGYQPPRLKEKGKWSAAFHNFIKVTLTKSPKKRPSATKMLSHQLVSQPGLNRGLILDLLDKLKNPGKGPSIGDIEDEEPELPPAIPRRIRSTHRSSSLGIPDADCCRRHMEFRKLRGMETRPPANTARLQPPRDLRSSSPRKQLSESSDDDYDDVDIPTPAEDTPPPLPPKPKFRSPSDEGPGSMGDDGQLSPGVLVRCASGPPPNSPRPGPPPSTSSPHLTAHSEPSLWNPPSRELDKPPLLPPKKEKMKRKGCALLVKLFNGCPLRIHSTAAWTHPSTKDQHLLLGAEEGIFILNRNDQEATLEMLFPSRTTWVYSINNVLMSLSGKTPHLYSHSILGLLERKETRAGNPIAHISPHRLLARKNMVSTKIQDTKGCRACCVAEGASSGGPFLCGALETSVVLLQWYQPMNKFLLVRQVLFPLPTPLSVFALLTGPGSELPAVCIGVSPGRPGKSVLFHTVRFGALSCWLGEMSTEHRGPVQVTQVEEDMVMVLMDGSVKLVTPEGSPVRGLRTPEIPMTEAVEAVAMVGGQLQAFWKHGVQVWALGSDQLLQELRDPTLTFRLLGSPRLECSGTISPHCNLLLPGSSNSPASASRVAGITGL

[2] = target: T1, Mitogen-activated protein kinase kinase kinase kinase 1; assay: Inhibition of HPK1 in human Jurkat cells assessed as reduction in SLP76 phosphorylation pretreated for 1 hr followed by anti-CD3 addition and measured after 15 min by ELISA method; assay type: cell-based
Target sequence in this assay (Q92918 whole entry, the tested form may be a part): as above

[3] = target: T1, Mitogen-activated protein kinase kinase kinase kinase 1; assay: Inhibition of HPK1 in human T cells assessed as increase in IL-2 secretion measured after 24 hrs by ELISA method; assay type: cell-based, T-cell; conditions: for Activity: T-cell
[4] = Half life in overnight fasted mouse at 1 mg/kg, iv; assay type: ADME, organism-based; conditions: in vivo
[5] = Plasma clearance in overnight fasted mouse at 1 mg/kg, iv; assay type: ADME, organism-based
[6] = AUC (0 to 24 hrs) in overnight fasted mouse at 10 mg/kg, po; assay type: ADME, organism-based; conditions: in vivo
[7] = Half life in overnight fasted rat at 1 mg/kg, iv; assay type: ADME, organism-based; conditions: in vivo
[8] = Plasma Clearance in overnight fasted rat at 1 mg/kg, iv; assay type: ADME, organism-based
[9] = Cmax in overnight fasted rat at 10 mg/kg, po; assay type: ADME, organism-based; conditions: in vivo
[10] = AUC (0 to 24 hrs) in overnight fasted rat at 10 mg/kg, po; assay type: ADME, organism-based; conditions: in vivo
[11] = Cmax in overnight fasted mouse at 10 mg/kg, po; assay type: ADME, organism-based; conditions: in vivo
[12] = target: T1, Mitogen-activated protein kinase kinase kinase kinase 1; assay: Inhibition of HPK1 in human T cells assessed as increase in IL-2 secretion at 333 nM incubated for 2 hrs and measured after 24 hrs by ELISA method; assay type: cell-based; conditions: T-cell
Target sequence in this assay (Q92918 whole entry, looked up, the tested form may be a part): as the sequence (Q92918 whole entry, the tested form may be a part) above

[13] = target: Voltage-gated inwardly rectifying potassium channel KCNH2 (Homo sapiens, UniProt Q12809); assay: Inhibition of HERG expressed in HEK293 cells at -80mV holding potential incubated for 24 to 48 hrs by whole-cell patch clamp method
Voltage-gated inwardly rectifying potassium channel KCNH2, sequence (Q12809 whole entry): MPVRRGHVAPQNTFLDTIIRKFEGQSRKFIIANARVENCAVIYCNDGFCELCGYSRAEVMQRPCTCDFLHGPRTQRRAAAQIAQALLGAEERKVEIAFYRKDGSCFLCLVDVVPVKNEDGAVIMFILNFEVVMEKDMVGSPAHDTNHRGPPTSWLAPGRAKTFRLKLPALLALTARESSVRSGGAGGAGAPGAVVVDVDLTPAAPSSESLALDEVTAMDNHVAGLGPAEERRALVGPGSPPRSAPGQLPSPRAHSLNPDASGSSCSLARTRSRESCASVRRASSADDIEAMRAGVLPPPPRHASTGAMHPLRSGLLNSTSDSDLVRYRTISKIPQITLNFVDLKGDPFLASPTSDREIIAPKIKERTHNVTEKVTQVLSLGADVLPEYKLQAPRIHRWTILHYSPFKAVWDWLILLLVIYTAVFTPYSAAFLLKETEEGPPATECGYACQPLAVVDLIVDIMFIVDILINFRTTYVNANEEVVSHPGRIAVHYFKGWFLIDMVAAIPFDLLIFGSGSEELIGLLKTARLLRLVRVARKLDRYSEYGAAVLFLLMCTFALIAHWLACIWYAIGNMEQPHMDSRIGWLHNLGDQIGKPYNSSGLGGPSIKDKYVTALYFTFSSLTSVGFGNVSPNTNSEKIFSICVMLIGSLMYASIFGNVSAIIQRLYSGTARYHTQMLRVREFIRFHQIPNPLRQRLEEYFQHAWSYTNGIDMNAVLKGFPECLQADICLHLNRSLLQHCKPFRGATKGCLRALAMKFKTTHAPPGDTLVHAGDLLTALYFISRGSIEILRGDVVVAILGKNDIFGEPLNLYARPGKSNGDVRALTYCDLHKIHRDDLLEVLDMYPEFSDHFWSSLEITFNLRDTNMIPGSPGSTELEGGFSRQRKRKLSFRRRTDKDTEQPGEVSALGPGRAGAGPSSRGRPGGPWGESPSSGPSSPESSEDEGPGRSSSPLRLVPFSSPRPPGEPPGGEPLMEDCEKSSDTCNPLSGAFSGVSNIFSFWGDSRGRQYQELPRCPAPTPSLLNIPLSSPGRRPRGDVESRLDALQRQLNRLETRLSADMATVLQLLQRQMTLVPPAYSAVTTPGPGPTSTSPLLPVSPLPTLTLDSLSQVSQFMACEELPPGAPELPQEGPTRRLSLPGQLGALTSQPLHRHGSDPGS

[14] = Oral bioavailability in in overnight fasted mouse at 10 mg/kg; assay type: ADME, organism-based; conditions: in vivo

Row | Structure (SMILES) | pIC50 [1] | pEC50 [2] | pEC50 [3] | Activity [3] | half-life [4] | clearance [5] | AUC(0-t) [6] | Cmax [11] | also measured
1 | CN(C)Cc1nc(Nc2ccc(-c3cnc4cc(F)ccn34)c3c2C(=O)NCC3)ccc1C1CCOCC1 | 6.28 | – | – | – | – | – | – | – | –
2 | COC1CCN(Cc2nc(Nc3ccc(-c4cnc5cc(F)ccn45)c4cn[nH]c(=O)c34)ccc2C2CCOCC2)C1 (centres undefined) | 7.61 | 7.49 | 6.60 | Dose-dependent-effect | – | – | – | – | –
3 | CN(C)Cc1nc(Nc2ccc(-c3cnc4cc(F)ccn34)c3c2C(=O)NC3)ccc1C1CCOCC1 | – | – | – | – | 30 min | 269 mL/min/kg | 1350 ng·h/mL | 282 ng/mL | half-life [7]: 84 min; clearance [8]: 230 mL/min/kg; Cmax [9]: 74 ng/mL; AUC(0-t) [10]: 312 ng·h/mL; Activity [12]: Active; pIC50 [13]: 5.55

Now from value to compound, other results behind:

Row | pIC50 [1] | pEC50 [2] | pEC50 [3] | Activity [3] | half-life [4] | clearance [5] | AUC(0-t) [6] | Cmax [11] | Structure (SMILES) | also measured
4 | 6.27 | – | – | – | – | – | – | – | CN(C)Cc1nc(Nc2ncc(-c3cnc4cc(F)ccn34)c3cn[nH]c(=O)c23)ccc1C1CCOCC1 | –
5 | 7.47 | 7.26 | 6.43 | Dose-dependent-effect | – | – | – | – | O=c1[nH]ncc2c(-c3cnc4cc(F)ccn34)ccc(Nc3ccc(C4CCOCC4)c(CN4CC[C@@H](F)C4)n3)c12 | –
6 | 8.16 | 7.72 | 6.91 | Dose-dependent-effect | 12 min | 263 mL/min/kg | 477 ng·h/mL | 725 ng/mL | CN(C)Cc1nc(Nc2ccc(-c3cnc4cc(F)ccn34)c3cn[nH]c(=O)c23)ccc1C1CCOCC1 | bioavailability [14]: 77%
